Test results published in US20100168102A9, “Amide Derivatives as Kinase Inhibitors” (Devgen NV, priority 2005, published 2010).

Tests used:
PKC epsilon = target: T1, PKC epsilon (Homo sapiens, UniProt Q02156); assay: Biochemical assay for PKC epsilon (fluorescence polarization, Protein Kinase C Assay Kit, Red); settings: compounds of Formula XIV, Table 3; read-out: IC50 μM PKCε
T1 construct: purchased Invitrogen P2282
T1 sequence (Q02156 1-737): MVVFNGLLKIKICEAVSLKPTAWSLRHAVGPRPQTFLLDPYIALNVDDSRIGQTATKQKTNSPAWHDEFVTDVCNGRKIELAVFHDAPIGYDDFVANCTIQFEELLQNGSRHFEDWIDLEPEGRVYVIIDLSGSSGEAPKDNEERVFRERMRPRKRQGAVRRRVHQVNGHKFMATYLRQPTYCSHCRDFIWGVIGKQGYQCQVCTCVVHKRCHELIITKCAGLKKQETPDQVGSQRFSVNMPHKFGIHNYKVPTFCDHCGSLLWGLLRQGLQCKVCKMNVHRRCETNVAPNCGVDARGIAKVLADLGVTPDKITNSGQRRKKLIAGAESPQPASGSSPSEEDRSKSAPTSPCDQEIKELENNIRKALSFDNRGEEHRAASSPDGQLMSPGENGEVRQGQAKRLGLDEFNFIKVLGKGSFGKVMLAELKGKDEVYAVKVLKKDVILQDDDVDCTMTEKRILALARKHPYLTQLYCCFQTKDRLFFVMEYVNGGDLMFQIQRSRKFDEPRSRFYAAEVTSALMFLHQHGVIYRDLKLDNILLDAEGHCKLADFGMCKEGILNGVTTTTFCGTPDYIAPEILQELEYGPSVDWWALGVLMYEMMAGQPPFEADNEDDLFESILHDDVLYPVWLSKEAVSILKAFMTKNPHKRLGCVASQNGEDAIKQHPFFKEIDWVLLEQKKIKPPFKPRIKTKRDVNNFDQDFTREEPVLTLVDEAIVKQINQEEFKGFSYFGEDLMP
In short: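 PKC epsilon at 10 ng/ml final was preincubated 30 min at room temperature with compound in HEPES pH 7.4 with DTT and Triton X-100. ATP/protein substrate was then added in buffer with MgCl2 and CaCl2 for 80 min. The reaction was stopped with EDTA, phosphorylation was detected by fluorescence polarization with rhodamine tracer and anti-phosphoserine antibody, and IC50 values came from curve fits.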

human ROCKα/ROCKII mix = target: T2, human ROCKα/ROCKII mix (Homo sapiens, UniProt O75116); assay: Biochemical assay for ROCK (fluorescence polarization, ROCK IMAP Kit); settings: compounds of Formula XIV, Table 3
T2 construct: purchased Upstate Biotechnology 14-451
T2 sequence (O75116 11-552 limits assumed): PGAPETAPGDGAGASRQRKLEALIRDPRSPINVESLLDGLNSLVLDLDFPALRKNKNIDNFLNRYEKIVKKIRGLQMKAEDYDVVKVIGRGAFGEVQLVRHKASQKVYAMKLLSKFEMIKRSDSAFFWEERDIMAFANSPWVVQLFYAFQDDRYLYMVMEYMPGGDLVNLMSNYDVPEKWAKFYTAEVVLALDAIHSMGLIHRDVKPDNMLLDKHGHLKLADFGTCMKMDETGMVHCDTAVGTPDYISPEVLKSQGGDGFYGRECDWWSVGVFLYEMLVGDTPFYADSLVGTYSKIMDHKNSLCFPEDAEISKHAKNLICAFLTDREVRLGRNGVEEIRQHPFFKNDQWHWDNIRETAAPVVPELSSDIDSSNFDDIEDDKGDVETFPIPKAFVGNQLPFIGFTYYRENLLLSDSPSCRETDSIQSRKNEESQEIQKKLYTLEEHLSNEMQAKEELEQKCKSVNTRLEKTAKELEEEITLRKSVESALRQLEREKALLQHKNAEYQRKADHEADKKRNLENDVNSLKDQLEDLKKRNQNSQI

Row | IC50 (PKC epsilon) | IC50 (human ROCKα/ROCKII mix) | Compound
1 | 0.5 to 5 µM | 0.05 to 0.5 µM | NC(CC(=O)NCCc1c(Cl)cccc1Cl)c1ccc(C(=O)Nc2ccncc2)cc1 (centres unmarked) [Compound 302]
2 | 0.5 to 5 µM | 0.05 to 0.5 µM | NC(CC(=O)NCCc1ccc(Cl)cc1Cl)c1ccc(C(=O)Nc2ccncc2)cc1 (centres unmarked) [Compound 303, 4-{1-Amino-2-[2-(2,4-dichloro-phenyl)-ethylcarbamoyl]-ethyl}-N-pyridin-4-yl-benzamide]
3 | 0.5 to 5 µM | 0.05 to 0.5 µM | NC(CC(=O)NCCc1ccc(Cl)c(Cl)c1)c1ccc(C(=O)Nc2ccncc2)cc1 (centres unmarked) [Compound 304]
4 | 0.5 to 5 µM | 0.05 to 0.5 µM | NC(CC(=O)NCCc1ccccc1F)c1ccc(C(=O)Nc2ccncc2)cc1 (centres unmarked) [Compound 305, 4-{1-Amino-2-[2-(2-fluoro-phenyl)-ethylcarbamoyl]-ethyl}-N-pyridin-4-yl-benzamide]
5 | 5 to 50 µM | 0.5 to 5 µM | NC(CC(=O)NCCc1cccc(F)c1)c1ccc(C(=O)Nc2ccncc2)cc1 (centres unmarked) [Compound 306]
6 | 0.05 to 0.5 µM | 0.05 to 0.5 µM | NC(CC(=O)NCCc1ccc(F)cc1)c1ccc(C(=O)Nc2ccncc2)cc1 (centres unmarked) [Compound 307, 4-{1-amino-2-[2-(4-fluoro-phenyl)-ethylcarbamoyl]-ethyl}-N-pyridin-4-yl-benzamide]
7 | 0.5 to 5 µM | 0.05 to 0.5 µM | NC(CC(=O)NCCc1cccs1)c1ccc(C(=O)Nc2ccncc2)cc1 (centres unmarked) [Compound 311, 4-[1-amino-2-(2-thiophen-2-yl-ethylcarbamoyl)-ethyl]-N-pyridin-4-yl-benzamide]

Second part, the compound before the results:

Row | Compound | IC50 (PKC epsilon) | IC50 (human ROCKα/ROCKII mix)
8 | CC(Cc1ccc(Cl)cc1)NC(=O)CC(N)c1ccc(C(=O)Nc2ccncc2)cc1 (centres unmarked) [Compound 300, 4-{1-Amino-2-(2-(4-chloro-phenyl)-1-methyl-ethylcarbamoyl]-ethyl}-N-pyridin-4-yl-benzamide] | 0.5 to 5 µM | 0.05 to 0.5 µM
9 | CC(CNC(=O)CC(N)c1ccc(C(=O)Nc2ccncc2)cc1)c1ccc(Cl)cc1 (centres unmarked) [Compound 301, 4-{1-Amino-2-[2-(4-chloro-phenyl)-propylcarbamoyl]-ethyl}-N-pyridin-4-yl-benzamide] | 0.05 to 0.5 µM | 0.05 to 0.5 µM
10 | CC(C)(Cc1ccc(F)cc1)NC(=O)CC(N)c1ccc(C(=O)Nc2ccncc2)cc1 (centres unmarked) [Compound 308, 4-{1-amino-2-[2-(4-fluoro-phenyl)-1,1-dimethyl-ethylcarbamoyl]-ethyl}-N-pyridin-4-yl-benzamide] | 0.05 to 0.5 µM | 0.05 to 0.5 µM
11 | NC(CC(=O)NCCc1c[nH]c2ccccc12)c1ccc(C(=O)Nc2ccncc2)cc1 (centres unmarked) [Compound 313, 4-{1-Amino-2-[2-(1H-indol-3-yl)-ethylcarbamoyl]-ethyl}-N-pyridin-4-yl-benzamide] | 0.5 to 5 µM | 0.05 to 0.5 µM
12 | Cc1ccc2[nH]cc(CCNC(=O)CC(N)c3ccc(C(=O)Nc4ccncc4)cc3)c2c1 (centres unmarked) [Compound 314, 4-{1-Amino-2-[2-(5-methyl-1H-indol-3-yl)-ethylcarbamoyl]-ethyl}-N-pyridin-4-yl-benzamide] | 0.5 to 5 µM | 0.05 to 0.5 µM
13 | CC(Cc1c[nH]c2ccccc12)NC(=O)CC(N)c1ccc(C(=O)Nc2ccncc2)cc1 (centres unmarked) [Compound 315, 4-{1-Amino-2-[2-(1H-indol-3-yl)-1-methyl-ethylcarbamoyl]-ethyl}-N-pyridin-4-yl-benzamide] | 0.5 to 5 µM | 0.05 to 0.5 µM
14 | NC(CC(=O)Nc1ccccc1)c1ccc(C(=O)Nc2ccncc2)cc1 (centres unmarked) [Compound 316] | 0.5 to 5 µM | 0.05 to 0.5 µM
15 | COc1ccc(NC(=O)CC(N)c2ccc(C(=O)Nc3ccncc3)cc2)cc1 (centres unmarked) [Compound 319, 4-[1-Amino-2-(4-methoxy-phenyl-carbamoyl)-ethyl]-N-pyridin-4-yl-benzamide] | 0.5 to 5 µM | 0.05 to 0.5 µM
16 | NC(CC(=O)Nc1ccc(CO)cc1)c1ccc(C(=O)Nc2ccncc2)cc1 (centres unmarked) [Compound 320, 4-[1-Amino-2-(4-hydroxymethyl-phenyl-carbamoyl)-ethyl]-N-pyridin-4-yl-benzamide] | 0.5 to 5 µM | 0.05 to 0.5 µM
